Results on 17 compounds are retold here after patent US12310967B2, “Compositions and methods of treatment for neurological disorders comprising motor neuron diseases” (Gliapharm SA, priority 2017, dated 2025).

Counter-ions that a name gives are not always drawn.

Experiment [1] concerns primary astrocytes. Description: Extracellular lactate quantification. In kind it is cell-based, mouse. To be noted: for Score_LACTATE: Appendix I, secondary screening: extracellular lactate. The method, boiled down:
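Astrocytes were stimulated 90 min at 37 °C in D5030 medium with 5 mM glucose and 44 mM bicarbonate, with compound at 0-100 μM. Extracellular lactate was measured enzymatically with LDH/NAD in glycine-semicarbazide buffer, pH 10, for 1 h at 37 °C. NADH fluorescence (340/450 nm) was converted to lactate using an L-lactate standard curve.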

For experiment [2], the system named is primary astrocytes. Description: High throughput screening (HTS) for lactate secretion: acidification of extracellular medium (SNARF5). In kind it is cell-based, mouse. Further details: key to Score / HTS Score (SNARF5) / Score_SNARF: fraction of plate positive-control activity (1 = 100%). To be noted: for Score_SNARF: Appendix I, primary screening confirmation (SNARF5). As to the method: Primary cultures of cerebrocortical astrocytes were obtained from 1-2-day-old OF1 mouse pups (Charles River Laboratories). Briefly, cortices were isolated and minced in small pieces under a dissecting microscope. The cells were incubated for 30 min at 37° C. in a solution containing 20 U/ml of papain enzyme (Worthington Biochemical), L-cysteine 1 mM (Sigma), and 10 kU/ml DNase I (Worthington Biochemical) for an enzymatic dissociation. Papain activity was stopped by the addition of fetal calf serum (FCS) to the solution, and a single-cell suspension was then obtained by mechanical dissociation, which consisted in cells trituration in a DMEM (D7777, Sigma-Aldrich) medium (supplemented with 44 mm NaHCO3, and 10 ml/L antibiotic/antimycotic solution) containing 10% FCS. The cells were seeded at an average density of 6×10^4 cells/cm^2 in poly-D-lysine-coated 96, 12 or 6-well culture plates, depending on their use, and incubated at 37° C. in a humidified atmosphere containing 5% CO2/95% air. Culture medium was renewed twice per week. Cells were stimulated and harvested between DIV14 and DIV17, when confluence and cell growth were optimal.
Secretion of lactate in a high-throughput screening (HTS) fashion was measured indirectly through the acidification of extracellular medium. To this end, primary astrocytes grown in 96-well plates for 17 days were stimulated with the compounds as listed herein.
After washing the cells twice with stimulation medium (DMEM (D5030, Sigma), 3 mM NaHCO3 and 5 mM Glucose) at 37° C., cells were stimulated with the compounds at a final concentration of 10 uM (1% DMSO final) in 50 ul per well of stimulation medium supplemented with 10 uM of the extracellular pH sensor SNARF-5F %-(AND-6)-CAR (Life Technologies Corporation). Each compound was tested in two different plates for duplicates.
After 90 min stimulation, fluorescence was read at exc. (excitation) 480 nm/emm. (emission) 580 nm and at exc 480 nm/emm. 630 nm. The ratio of fluorescence between 630 nm and 580 emission values, which represents extracellular pH, was calculated.
In each plate, 8 wells were used for negative controls (DMSO) and 8 wells were used for positive controls (CCCP 2 uM in DMSO). Z prime values were calculated for each of the plates tested and values<0 were discarded.
The average and SD of compounds' values tested in duplicates were calculated, and compound was noted as HIT when the difference between compound's average and negative control's average was greater than three times the sum of compound's SD and negative controls' SD. Only scores greater than 40% were considered as lead Hits for the CDC54K library; for the remaining libraries, all hits were considered. Scores are calculated as the % of activity compared to the positive control in each plate (which is 100%).
Primary screening hits were cherry picked on new plates and confirmed for SNARF5 effect, after having discarded those compounds that are fluorescent (exc. 480 nm/emm. 580 nm or 630 nm) before stimulation. Extracellular medium was next analyzed for extracellular lactate quantification for secondary screening.
Identification of lactate-enhancing drugs with high throughput screening (HTS) experiments on astrocytes primary cultures using extracellular pH dye (SNARF5F 5-(and-6)-carboxylic acid) for 90 min. The procedure is described in Material and Methods (2. Cell culture, 2.1. HTS for lactate secretion and 2.2. Extracellular lactate quantification).
The procedure was performed as follows: • Primary screening: acidification of the extracellular medium • Primary screening confirmation: acidification of the extracellular medium, removal of compounds with fluorescent activity at exc. 480 nm/emm. 580 nm or 630 n. • Secondary screening: dosage of extracellular lactate

The subject of experiment [3] is primary astrocytes. Description: Intracellular glycogen quantification. It is filed as cell-based, mouse. To be noted: 10 μM, 3 h. Here is the method:
For glycogen dosage, a protein dosage was first performed in order to assess whether harvested astrocytes from primary cell cultures yielded enough and equivalent amounts of proteins comparing each replicate, and to ensure that the obtained differences in glycogen quantities were due to drug action and not to inner protein quantities.
Astrocytes used for these dosages were previously grown in 6-well plates for 17 days and stimulated with Vehicle (DMSO) or drug of interest (1 μM to 100 μM) for 180 min, at 37° C. 5% CO2/95% air in D5030 complete medium. Medium was removed and replaced with 600 μl of 30 mM Tris HCl, and stored at −20° C.
Proteins were dosed using the micro BCA Protein Assay kit (Thermo Scientific), as described in the manufacturer's instructions. Briefly, thawed cells were sonicated and 5 μl aliquots were placed in a transparent 96-well plate, to which we added 25 μl 30 mM Tris HCl, 70 μl H2O and 100 μl of a BCA mix (made as described in manufacturer's guidelines). After a 120 min-incubation at 37° C., absorbance was measured with Safire 2 spectrophotometer at a wavelength of 562 nm, and protein quantities were determined from a standard curve of Bovine Serum Albumin (BSA).
Glycogen was quantified using a 250 μl-aliquot of the same stimulated, thawed, and sonicated cells. After an incubation period of 30 min at 90° C. and 400 rpm, 28 μl of an acetic acid/sodium acetate (both from Sigma) 0.1M pH 4.6 buffer was added to each aliquot, which was then separated in two. Each split aliquot received whether 5 μl of amyloglucosidase (Roche) or 5 μl H2O, and all cell solutions were incubated for 120 min in a shaking 37° C.-waterbath. After a centrifugation at 16'000G for 5 min, 20 μl of supernatant were placed 96-well plate, to which 150 μl of a mix containing 0.67 mM ATP (Roche), 0.67 mM NADP (Roche), 1.8% hexokinase/glucose-6-phosphate dehydrogenase (Roche) and 0.1M Tris Buffer-HCl/3.3 mM magnesium (Fluka)/pH 8.1 buffer was added. Fluorescence was measured with Safire 2 spectrophotometer (340 nm excitation/440 nm emission). Glycogen concentration was obtained by substracting glucose value of samples with amyloglucosidase to samples without amyloglucosidase, and were expressed relative to the amount of proteins previously determined.
Levels of intracellular glycogen in astrocytes were measured at 3 h after stimulation with 20 Hits from the Prestwick library (10 μM each), as shown in FIG. 2. n=6-10; Ctrl pos. is glutamate (0.5 mM). Statistical analysis consisted in ANOVA followed by Fisher LSD post-hoc test for pair-wise comparisons.
Statistical analysis consisted in ANOVA followed by Fisher LSD post-hoc test for pair-wise comparisons.

The subject of experiment [4] is primary astrocytes. Description: MTT viability assay. In kind it is cell-based. The following applies: Mus musculus, Astrocyte, 0-200 uM, 24 h. Here is the method: For cell toxicity determination, astrocytes in 96-well plates were stimulated 24 h (37° C. 5% CO2/95% air) with a gradient ranging from 0.1 to 200 μM of tested compounds. After stimulation, 5 mg/ml thiazol blue tetrazolium bromide (MTT, Sigma-Aldrich) in warm D5030 complete medium was added to each well, and cells were incubated for 4 h at 37° C. (5% CO2). The medium was then removed by aspiration, and the reaction was stopped by the addition of 50 μl DMSO per well.
The amount of reduced MTT (formazan) solubilized in DMSO was then determined spectrophotometrically using absorbance at 570 nm (Safire 2; Tecan).
MTT cellular viability assay was performed on astrocytes exposed to Preswtick Hits (concentrations ranging from 0 uM to 200 uM).
MTT cellular viability assay was performed on astrocytes exposed to CDC54K Hits (concentrations ranging from 0 uM to 200 uM).
(Tetrazolium dyes change colour on reduction, which living cells bring about.)

In general, IC50 refers to the midpoint of a concentration-inhibition curve. Take `Fc1ccc(-c2cc3n(n2)CCCN(Cc2ccncc2)C3)cc1` [T202-1455]: the Score_LACTATE in the experiment on primary astrocytes [1] was 0.6933. For the same compound, the Score_SNARF in the experiment on primary astrocytes [2] was found to be 0.7839. Besides, the “Glycogen (statistical significance of glycogen degradation)” value with primary astrocytes [3] (CDC54K hits) was “ns”. The compound also showed an IC50 in the experiment with primary astrocytes [4] (CDC54K hits) greater than 200 µM.
Consider `O=c1n(CCCN2CCN(c3cccc(Cl)c3)CC2)nc2ccccn12` [Trazodone hydrochloride], for which the “Glycogen (statistical significance of glycogen degradation)” value with primary astrocytes [3] (Prestwick hits) is “ns”.
In the experiment on primary astrocytes [1], `COc1cccc(CNS(=O)(=O)c2ccc3c(c2)CCCN3C(C)=O)c1` [T5967389] gave a Score_LACTATE of 0.4517. For the same compound, the “Score Lact.” value in the experiment on primary astrocytes [1] (Appendix II, CDC54K library) turned out to be 0.45. In the experiment with primary astrocytes [2], the Score_SNARF is 0.2789. In the experiment on primary astrocytes [4] (CDC54K hits), this compound showed an IC50 greater than 200 µM.
A word on the EC50: it is the concentration needed to bring the measured effect to its halfway point. For the compound `C#C[C@]1(O)CC[C@H]2[C@@H]3[C@H](C)CC4=C(CCC(=O)C4)[C@H]3CC[C@@]21C` [Tibolone], the EC50 in the experiment with primary astrocytes [1] (Mus musculus, Astrocyte, 1.5 h, Prestwick hits, 0-100 μM, 90 min, read-out: Lactate EC50) came to 2.23 µM. In addition, in the experiment with primary astrocytes [2] (Prestwick library, 10 uM, 90 min, activity relative to positive control CCCP 2 uM), the Score was found to be 0.2268. Moreover, in the experiment with primary astrocytes [2] (Prestwick library, 10 uM, 90 min, relative to positive control CCCP 2 uM), the “HTS Score (lactate)” value was found to be 0.227. The same compound showed an IC50 in the experiment with primary astrocytes [4] (Prestwick hits) of 60.7 µM.
The compound `CC(=O)c1cccc(NC(=O)C(C)Sc2ncnc3ccccc23)c1` (stereo not drawn) [T0511-9200] had a Score_LACTATE with primary astrocytes [1] of 0.7518. In the experiment on primary astrocytes [2], the Score_SNARF is 0.4866. Also, in the experiment on primary astrocytes [3] (CDC54K hits), the “Glycogen (statistical significance of glycogen degradation)” value is on record as “ns”. Also, the concentration for half-maximal inhibition (IC50) in the experiment with primary astrocytes [4] (CDC54K hits) is greater than 200 µM.
In turn, `COc1ccccc1NC(=O)Cc1nn(C)c(=O)c2ccccc12` [K851-0113] gave a Score_LACTATE in the experiment with primary astrocytes [1] of 0.9281. Besides, in the experiment with primary astrocytes [2], the Score_SNARF is 0.7569. Further, the “Glycogen (statistical significance of glycogen degradation)” value with primary astrocytes [3] (CDC54K hits) is recorded as “ns”. Besides, in the experiment with primary astrocytes [4] (CDC54K hits), the IC50 is greater than 200 µM.
Regarding `O=C(C[n+]1cc(-c2ccc(Br)cc2)n2c1CCCCC2)c1ccccc1.[Br-]` [T0500-4648], the Score_LACTATE with primary astrocytes [1] is reported as 1.116. Besides, the Score_SNARF in the experiment with primary astrocytes [2] is listed as 1.034.
`COc1ccc(C2SCCN2S(=O)(=O)c2ccc(C)c(C)c2)cc1OC` (stereo not drawn) [F1462-0491]: the Score_LACTATE in the experiment with primary astrocytes [1] is listed as 0. The Score_SNARF with primary astrocytes [2] was 0.
The compound `CN(C)Cc1cccc(CNc2ncnc3sccc23)c1` [T6783542] had a Score_LACTATE in the experiment with primary astrocytes [1] of 1.033. This compound also displayed a Score_SNARF with primary astrocytes [2] of 0.9183.
For the compound `O=C(COc1ccc(Cl)cc1)N1CCN(Cc2ccc3c(c2)OCO3)CC1` [Fipexide hydrochloride], the “Glycogen (statistical significance of glycogen degradation)” value in the experiment on primary astrocytes [3] (Prestwick hits) is “ns”.
`Cc1cc(S(=O)(=O)NCc2ccncc2)c(Cl)cc1Cl` [T5581430]: the Score_LACTATE in the experiment with primary astrocytes [1] was found to be 0. Further, the Score_SNARF with primary astrocytes [2] stood at 0.505.
As for `COc1ccc(C2(O)C[N+](c3cccc(C)c3)=C3CCCCN32)cc1` (stereo not drawn) [K404-0796], in the experiment with primary astrocytes [1], the Score_LACTATE is listed as 0. The Score_SNARF in the experiment with primary astrocytes [2] amounted to 0.6402.
Consider `Cc1ccccc1NS(=O)(=O)c1ccc2onc(C(=O)N3CCCCC3)c2c1` [L995-0405], for which the Score_LACTATE in the experiment on primary astrocytes [1] was found to be 0. The compound further showed a Score_SNARF in the experiment on primary astrocytes [2] of 0.3724.
Turning to `Cc1ccc(CNS(=O)(=O)c2cc(-c3noc(C4CCCC4)n3)cs2)cc1` [L287-1641], the Score_LACTATE in the experiment on primary astrocytes [1] is on record as 0.8035. In the experiment on primary astrocytes [2], this compound yielded a Score_SNARF of 0.626.
`COc1ccc(OC)c([N+]2=C3CCCCCN3C(O)(c3ccc(C)cc3)C2)c1` (stereo not drawn) [K404-0855] displayed a Score_LACTATE in the experiment on primary astrocytes [1] of 0.6277. Moreover, the Score_SNARF in the experiment with primary astrocytes [2] is 0.4944.
The like results for `OC1(c2ccccc2)C[N+](c2ccc(Cl)cc2)=C2CCCCN21.[Br-]` (stereo not drawn) [F0524-0488] were, in that order, 0 and 0.3489.
`Cc1oc2ncnc(N3CCCC(C(=O)NCc4cccnc4)C3)c2c1C` (stereo not drawn) [F228-0351] showed a Score_LACTATE with primary astrocytes [1] of 0.8985. In the experiment on primary astrocytes [2], this compound gave a Score_SNARF of 0.82.
